The record followed here is BindingDB's records for doi:10.1016/S0960-894X(00)80254-1 (1991).

The nature of this experiment: Inhibition of angiotensin I phosphorylation catalyzed by the protein-tyrosine kinase p56 lck partially purified from bovine thymus.

By IC50 is commonly meant the concentration needed to halve the response being measured. The low end stands for inhibition by little substance, the high end for a need for much substance. Take `COc1cc(C(=O)Nc2ccncc2)cc(OC)c1OC` [3,4,5-Trimethoxy-N-pyridin-4-yl-benzamide]: the half-maximal inhibitory concentration (IC50) was over 2780 µM. The value for `O=C(Nc1ccncc1)c1ccncc1` [N-Pyridin-4-yl-isonicotinamide] was 2320 µM. Then `COc1ccc(CCc2cccnc2)cc1OC` [3-[2-(3,4-Dimethoxy-phenyl)-ethyl]-pyridine], with 1320 µM; and `COc1ccc(/C=C/c2ccccn2)cc1OC` [2-[(E)-2-(3,4-Dimethoxy-phenyl)-vinyl]-pyridine], with 829 µM; and `c1cc(CCc2ccncc2)ccn1` [4-(2-pyridin-4-ylethyl)pyridine], with 2910 µM. Then `COc1cc(CNc2ccccn2)cc(OC)c1` [(3,5-Dimethoxy-benzyl)-pyridin-2-yl-amine], with over 3280 µM; and `O=C(Nc1ccncc1)c1cccnc1`, with 2120 µM. On to `COc1ccc(/C=C/c2cccnc2)cc1OC` [3-(3,4-dimethoxystyryl)pyridine], for which the IC50 worked out at 178 µM. On to `COc1cc(C(=O)Nc2cccnc2)cc(OC)c1OC` [3,4,5-Trimethoxy-N-pyridin-3-yl-benzamide], for which the IC50 was found to be 999 µM. Then `COc1cc(OC)cc(C(=O)Nc2ccccn2)c1` [3,5-Dimethoxy-N-pyridin-2-yl-benzamide], with 205 µM; and `C(=C\c1ccccn1)/c1ccccn1` [2-[(E)-2-pyridin-2-ylvinyl]pyridine], with 1230 µM. The value for `COc1cc(OC)cc(C(=O)Nc2ccncc2)c1` [3,5-Dimethoxy-N-pyridin-4-yl-benzamide] was 3100 µM; that for `COc1cc(CCc2cccnc2)cc(OC)c1OC` [3-[2-(3,4,5-Trimethoxy-phenyl)-ethyl]-pyridine] was over 2930 µM. Take `COc1ccc(/C=C/c2cccnc2)cc1` [3-[(E)-2-(4-Methoxy-phenyl)-vinyl]-pyridine]: the IC50 was over 3790 µM.

In turn, `COc1cc(CNc2ccccn2)cc(OC)c1OC` [Pyridin-2-yl-(3,4,5-trimethoxy-benzyl)-amine] registered an IC50 of over 2920 µM.
